Assay results published in ChEMBL document CHEMBL3763037 (J Med Chem, 2016).

Columns and labels:
[1] = Cytotoxicity against BRCA2-deficient human Capan1 cells; type: functional, cell-based, CAPAN-1; details: Homo sapiens, CAPAN-1
[2] = molecular target: PARP 1, 2 and 3 (Homo sapiens, UniProt P09874+Q9Y6F1+Q9UGN5); test: Inhibition of PARP in human LoVo cells assessed as inhibition of poly(ADP)-ribose polymerization for 30 mins by fluorescence assay; type: cell-based
[3] = molecular target: Poly [ADP-ribose] polymerase 1 (Homo sapiens, UniProt P09874); test: Inhibition of human PARP1 using [3H]NAD as substrate after 1 min by microplate scintillation counting analysis
Sequence of Poly [ADP-ribose] polymerase 1 (P09874 whole entry): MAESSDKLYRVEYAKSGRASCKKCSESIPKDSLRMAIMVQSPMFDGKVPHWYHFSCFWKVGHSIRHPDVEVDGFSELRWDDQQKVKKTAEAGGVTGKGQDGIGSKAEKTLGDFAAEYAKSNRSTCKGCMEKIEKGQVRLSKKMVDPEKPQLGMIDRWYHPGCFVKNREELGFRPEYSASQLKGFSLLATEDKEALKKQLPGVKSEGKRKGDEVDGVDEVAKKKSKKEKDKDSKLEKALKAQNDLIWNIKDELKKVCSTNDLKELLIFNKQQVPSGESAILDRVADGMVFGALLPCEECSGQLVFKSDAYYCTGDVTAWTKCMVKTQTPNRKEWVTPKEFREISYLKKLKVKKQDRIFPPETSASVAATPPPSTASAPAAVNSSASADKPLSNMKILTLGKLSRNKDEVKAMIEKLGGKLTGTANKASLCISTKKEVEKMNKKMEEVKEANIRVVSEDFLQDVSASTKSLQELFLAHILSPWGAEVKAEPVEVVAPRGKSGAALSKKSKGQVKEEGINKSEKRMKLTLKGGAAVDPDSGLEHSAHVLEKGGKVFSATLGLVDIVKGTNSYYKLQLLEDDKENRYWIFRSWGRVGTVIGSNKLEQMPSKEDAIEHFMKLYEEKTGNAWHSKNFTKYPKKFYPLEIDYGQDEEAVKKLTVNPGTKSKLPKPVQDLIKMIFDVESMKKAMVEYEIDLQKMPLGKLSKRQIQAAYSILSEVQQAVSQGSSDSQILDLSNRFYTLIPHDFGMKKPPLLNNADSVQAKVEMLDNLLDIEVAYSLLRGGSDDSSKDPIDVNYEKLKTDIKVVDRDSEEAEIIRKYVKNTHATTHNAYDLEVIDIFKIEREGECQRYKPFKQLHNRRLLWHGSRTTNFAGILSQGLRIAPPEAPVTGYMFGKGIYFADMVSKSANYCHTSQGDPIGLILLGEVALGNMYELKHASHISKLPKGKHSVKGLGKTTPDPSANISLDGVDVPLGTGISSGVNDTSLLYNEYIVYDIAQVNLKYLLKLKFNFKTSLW

[4] = Half life in rat liver microsomes; type: ADME
[5] = tested on: LoVo; test: cells; details: Homo sapiens, 120 h
[6] = tested on: MRC5; test: Cytotoxicity against human MRC5 cells; type: cell-based; details: Homo sapiens, MRC5
[7] = Terminal eliminational half life in Sprague-Dawley rat at 5 mg/kg, iv by LC-MS/MS analysis; type: ADME, organism-based; details: Sprague-Dawley, in vivo, read-out: beta t1/2 (converted)
[8] = Cmax in Sprague-Dawley rat at 10 mg/kg, po by LC-MS/MS analysis; type: ADME, organism-based; design: dose 10 mg/kg, route oral; details: in vivo
[9] = AUC in Sprague-Dawley rat at 10 mg/kg, po by LC-MS/MS analysis; type: ADME, organism-based; details: Sprague-Dawley, in vivo
[10] = Volume of distribution at steady state in Sprague-Dawley rat at 5 mg/kg, iv by LC-MS/MS analysis; type: ADME, organism-based; details: in vivo, read-out: Vdss
[11] = Oral bioavailability in Sprague-Dawley rat at 10 mg/kg by LC-MS/MS analysis; type: ADME, organism-based; details: Sprague-Dawley, in vivo
[12] = Clearance in Sprague-Dawley rat at 5 mg/kg, iv by LC-MS/MS analysis; type: ADME, organism-based; details: in vivo

Structure (SMILES)	EC50 [1]	EC50 [2]	IC50 [3]	half-life [4]	GI50 [5]	further results
Cc1ccc(C2c3n[nH]c(=O)c4cccc(c34)NC2c2ccc(CN(C)C)cc2)cc1 (stereo not given)	514 nM	10.8 nM	1.95 nM	0.583 h	123000 nM	
Cn1ncnc1C1c2n[nH]c(=O)c3cc(F)cc(c23)NC1c1cncnc1 (stereo not given)			7.62 nM			
Cn1ncnc1C1c2n[nH]c(=O)c3cc(F)cc(c23)NC1c1ccc(F)cc1 (stereo not given)	8 nM			5.98 h	19000 nM	
Cn1ccnc1C1c2n[nH]c(=O)c3cccc(c23)NC1c1ccc(F)cc1 (stereo not given)	418 nM	19.7 nM	2.08 nM	> 2 h	75500 nM	
CC(C)c1ccc(C2c3n[nH]c(=O)c4cccc(c34)NC2c2ccc(CN(C)C)cc2)cc1 (stereo not given)		15.2 nM	9.59 nM		123000 nM	
CNCc1ccc(-c2[nH]c3cc(F)cc4c3c2CCNC4=O)cc1 [RUCAPARIB]					144 nM	EC50 [6]: 8530 nM
CN(C)Cc1ccc(C2c3n[nH]c(=O)c4cccc(c34)NC2c2ccccc2)cc1 (stereo not given)			5.85 nM	0.1 h	112000 nM	
CC(=O)Nc1ccc(C2Nc3cc(F)cc4c(=O)[nH]nc(c34)C2c2ncnn2C)cc1 (stereo not given)	146 nM		2.08 nM	> 2 h		
Cn1ccnc1C1c2n[nH]c(=O)c3cc(F)cc(c23)NC1c1ccccc1 (stereo not given)	108 nM	18.1 nM	2.14 nM	1.72 h	36300 nM	
Cn1nccc1C1Nc2cc(F)cc3c(=O)[nH]nc(c23)C1c1ncnn1C (stereo not given)	1920 nM		2.88 nM			
CN1CCN(Cc2ccc(C3Nc4cccc5c(=O)[nH]nc(c45)C3c3ccccc3)cc2)CC1 (stereo not given)	603 nM	40.6 nM	2.02 nM	0.317 h	54600 nM	
Cn1ncnc1C1c2n[nH]c(=O)c3cc(F)cc(c23)NC1c1ccc(C#N)cc1 (stereo not given)	88 nM		3.9 nM			
O=c1[nH]nc2c3c(cccc13)N[C@H](c1ccc(CN3CCC3)cc1)[C@H]2c1ccc(F)cc1	389 nM	6.3 nM	1.1 nM		279 nM	half-life [7]: 2.29 h; Cmax [8]: 126 ng/mL; AUC [9]: 914 ng·h/mL; Vd [10]: 4.5 L/kg; bioavailability [11]: 14%; clearance [12]: 26 mL/min/kg
Cn1ccnc1C1c2n[nH]c(=O)c3cc(F)cc(c23)NC1c1ccc(F)cc1 (stereo not given)	56 nM	17 nM	1.87 nM		35700 nM	
O=c1[nH]nc2c3c(cccc13)NC(c1cccnc1)C2C1CCCNC1 (stereo not given)			105 nM			
NC(=O)c1cccc2cn(-c3ccc([C@@H]4CCCNC4)cc3)nc12 [NIRAPARIB]	650 nM					
O=c1[nH]nc2c3c(cccc13)NC(c1ccccn1)C2c1ccccn1 (stereo not given)			108 nM			
CN(C)Cc1cccc(C2c3n[nH]c(=O)c4cccc(c34)NC2c2ccccc2)c1 (stereo not given)			3.65 nM	0.183 h	204000 nM	
Cn1ncnc1C1c2n[nH]c(=O)c3cc(F)cc(c23)NC1c1ccccc1 (stereo not given)	9 nM		2.6 nM	7.87 h	24000 nM	
O=c1[nH]nc2c3c(cccc13)NC(c1ccncc1)C2c1ccncc1 (stereo not given)			22.4 nM		> 400000 nM	
CN(C)Cc1ccc(C2Nc3cc(F)cc4c(=O)[nH]nc(c34)C2c2ccccc2)cc1 (stereo not given)	146 nM	8.48 nM	3.29 nM	0.0833 h	46000 nM	
CC(C)C1c2n[nH]c(=O)c3cccc(c23)NC1c1ccccc1 (stereo not given)			4140 nM			
O=c1[nH]nc2c3c(cccc13)N[C@@H](c1ccc(CN3CCC3)cc1)[C@@H]2c1ccc(F)cc1	2250 nM	11.8 nM	5.6 nM		3570 nM	
Cn1ncnc1C1c2n[nH]c(=O)c3cccc(c23)NC1c1ccc(F)cc1 (stereo not given)	71 nM	6.94 nM	2.29 nM	> 2 h	44000 nM	
Cn1ccnc1C1Nc2cccc3c(=O)[nH]nc(c23)C1c1nccn1C (stereo not given)			24.5 nM			
CN(C)Cc1ccc(C2Nc3cccc4c(=O)[nH]nc(c34)C2c2ccc(C(F)(F)F)cc2)cc1 (stereo not given)	818 nM	6.7 nM	6.29 nM		94000 nM	
